Data from publication PMC7669905, “A cellulose synthase-derived enzyme catalyses 3-O-glucuronosylation in saponin biosynthesis” (Nature Communications, 2020).

Tests used:
Type in all cases: cell-based
GuUGT73F13 = target: T1, GuUGT73F13 (Glycyrrhiza uralensis, UniProt A0A6S4QPQ3); assay: in vivo yeast assay, LC-MS of 3-O-monoglucoside; settings: glycyrrhetinic acid-producing yeast strain with UGD; donor endogenous UDP-glucose
T1 construct: gene UGT73F13; cDNA clone expressed in S. cerevisiae with A. thaliana UGD
T1 sequence (A0A6S4QPQ3 1-477): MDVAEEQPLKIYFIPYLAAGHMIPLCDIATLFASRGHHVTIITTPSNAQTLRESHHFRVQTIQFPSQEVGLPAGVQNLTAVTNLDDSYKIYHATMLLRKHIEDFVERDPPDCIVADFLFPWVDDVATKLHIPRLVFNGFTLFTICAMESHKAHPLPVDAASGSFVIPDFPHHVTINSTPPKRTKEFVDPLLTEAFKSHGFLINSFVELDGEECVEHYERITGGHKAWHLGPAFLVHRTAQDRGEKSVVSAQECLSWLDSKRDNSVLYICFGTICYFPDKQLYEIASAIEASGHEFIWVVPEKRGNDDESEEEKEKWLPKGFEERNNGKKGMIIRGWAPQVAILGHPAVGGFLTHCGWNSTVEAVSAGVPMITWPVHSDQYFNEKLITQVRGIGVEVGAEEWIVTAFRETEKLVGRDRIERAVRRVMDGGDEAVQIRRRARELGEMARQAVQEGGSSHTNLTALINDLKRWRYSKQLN

GmCSyGT1 = target: T2, GmCSyGT1 (Glycine max, UniProt A0A7I6PD81); assay: in vivo yeast assay, LC-MS of monoglucuronide; settings: yeast strain with co-expressed UGD; endogenous UDP-glucuronic acid; 30 °C, 5 days
T2 construct: full-length cDNA, membrane protein, expressed in S. cerevisiae with A. thaliana UGD
T2 sequence (A0A7I6PD81 1-699): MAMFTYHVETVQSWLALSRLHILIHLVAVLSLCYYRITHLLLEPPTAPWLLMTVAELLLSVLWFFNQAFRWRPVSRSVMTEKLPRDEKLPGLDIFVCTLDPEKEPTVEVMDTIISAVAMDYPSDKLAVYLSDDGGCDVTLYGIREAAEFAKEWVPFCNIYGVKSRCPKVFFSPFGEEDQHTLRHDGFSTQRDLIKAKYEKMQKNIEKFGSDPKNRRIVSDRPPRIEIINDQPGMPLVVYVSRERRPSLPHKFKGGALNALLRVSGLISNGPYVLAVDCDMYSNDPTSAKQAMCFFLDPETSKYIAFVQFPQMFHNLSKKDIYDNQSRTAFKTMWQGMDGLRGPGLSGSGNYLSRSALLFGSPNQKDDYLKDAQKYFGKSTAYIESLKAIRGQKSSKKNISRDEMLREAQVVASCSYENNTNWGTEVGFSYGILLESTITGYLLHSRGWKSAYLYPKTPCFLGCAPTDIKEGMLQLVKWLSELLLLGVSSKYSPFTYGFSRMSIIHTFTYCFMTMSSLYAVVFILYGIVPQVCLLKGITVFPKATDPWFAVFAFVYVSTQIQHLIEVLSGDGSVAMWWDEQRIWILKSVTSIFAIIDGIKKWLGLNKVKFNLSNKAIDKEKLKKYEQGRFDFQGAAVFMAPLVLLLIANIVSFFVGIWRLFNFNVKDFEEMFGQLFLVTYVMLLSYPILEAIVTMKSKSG

LjCSyGT = target: T3, LjCSyGT (Lotus japonicus, UniProt A0A7I6P8A1); assay: in vivo yeast assay, LC-MS of monoglucuronide; settings: yeast strain with co-expressed UGD; endogenous UDP-glucuronic acid; 30 °C, 5 days
T3 construct: cDNA clone, ER membrane protein, expressed in S. cerevisiae with A. thaliana UGD
T3 sequence (A0A7I6P8A1 1-694): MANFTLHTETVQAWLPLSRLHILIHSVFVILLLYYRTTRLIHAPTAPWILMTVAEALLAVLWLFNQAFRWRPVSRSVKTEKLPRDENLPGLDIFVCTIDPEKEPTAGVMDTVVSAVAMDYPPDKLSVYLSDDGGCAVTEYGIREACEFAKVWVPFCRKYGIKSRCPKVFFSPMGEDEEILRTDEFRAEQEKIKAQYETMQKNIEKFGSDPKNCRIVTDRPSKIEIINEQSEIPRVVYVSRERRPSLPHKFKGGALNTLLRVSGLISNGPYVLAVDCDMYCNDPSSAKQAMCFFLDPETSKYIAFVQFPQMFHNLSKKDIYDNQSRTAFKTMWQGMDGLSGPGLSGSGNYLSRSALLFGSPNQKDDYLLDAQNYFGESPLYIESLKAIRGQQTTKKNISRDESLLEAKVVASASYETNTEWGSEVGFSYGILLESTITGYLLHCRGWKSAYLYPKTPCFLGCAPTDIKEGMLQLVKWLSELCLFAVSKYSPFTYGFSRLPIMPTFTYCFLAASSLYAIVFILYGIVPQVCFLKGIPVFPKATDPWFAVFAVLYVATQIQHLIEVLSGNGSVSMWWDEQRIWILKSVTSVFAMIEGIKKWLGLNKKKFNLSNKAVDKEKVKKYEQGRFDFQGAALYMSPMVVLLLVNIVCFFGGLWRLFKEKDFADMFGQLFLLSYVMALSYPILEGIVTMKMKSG

GuCSyGT [1] = target: T4, GuCSyGT (Glycyrrhiza uralensis, UniProt A0A7I6P8N6); assay: in vivo yeast assay, LC-MS of monoglucuronide; settings: yeast strain with co-expressed UGD; endogenous UDP-glucuronic acid; 30 °C, 5 days
T4 construct: full-length cDNA, ER membrane protein, expressed in S. cerevisiae with A. thaliana UGD
T4 sequence (A0A7I6P8N6 1-695): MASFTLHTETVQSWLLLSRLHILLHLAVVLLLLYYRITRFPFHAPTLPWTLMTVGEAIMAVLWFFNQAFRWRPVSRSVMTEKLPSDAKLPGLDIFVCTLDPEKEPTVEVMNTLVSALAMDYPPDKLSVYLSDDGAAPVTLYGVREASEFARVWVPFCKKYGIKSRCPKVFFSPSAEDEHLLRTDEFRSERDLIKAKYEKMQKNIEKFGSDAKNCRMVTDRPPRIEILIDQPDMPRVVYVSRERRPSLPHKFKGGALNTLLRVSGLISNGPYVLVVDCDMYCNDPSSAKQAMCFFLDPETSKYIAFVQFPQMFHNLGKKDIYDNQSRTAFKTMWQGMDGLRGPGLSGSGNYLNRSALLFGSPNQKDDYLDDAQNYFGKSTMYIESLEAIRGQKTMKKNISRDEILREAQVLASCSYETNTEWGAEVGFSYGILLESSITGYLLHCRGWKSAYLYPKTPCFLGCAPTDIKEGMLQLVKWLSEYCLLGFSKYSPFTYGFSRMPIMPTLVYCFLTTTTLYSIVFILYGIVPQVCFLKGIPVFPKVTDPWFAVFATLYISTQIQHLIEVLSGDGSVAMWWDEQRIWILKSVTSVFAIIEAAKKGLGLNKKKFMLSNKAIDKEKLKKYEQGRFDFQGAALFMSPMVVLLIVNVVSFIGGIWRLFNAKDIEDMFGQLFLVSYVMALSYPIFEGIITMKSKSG

UGT73P12 = target: T5, UGT73P12 (Glycyrrhiza uralensis, UniProt A0A5A4WN00); assay: de novo pathway in yeast, LC-MS of glycyrrhizin; settings: donor endogenous UDP-glucuronic acid (UGD); acceptor made in situ by CSyGT
T5 construct: expressed in S. cerevisiae in the reconstructed glycyrrhizin pathway (strain GL)
T5 sequence (A0A5A4WN00 1-506): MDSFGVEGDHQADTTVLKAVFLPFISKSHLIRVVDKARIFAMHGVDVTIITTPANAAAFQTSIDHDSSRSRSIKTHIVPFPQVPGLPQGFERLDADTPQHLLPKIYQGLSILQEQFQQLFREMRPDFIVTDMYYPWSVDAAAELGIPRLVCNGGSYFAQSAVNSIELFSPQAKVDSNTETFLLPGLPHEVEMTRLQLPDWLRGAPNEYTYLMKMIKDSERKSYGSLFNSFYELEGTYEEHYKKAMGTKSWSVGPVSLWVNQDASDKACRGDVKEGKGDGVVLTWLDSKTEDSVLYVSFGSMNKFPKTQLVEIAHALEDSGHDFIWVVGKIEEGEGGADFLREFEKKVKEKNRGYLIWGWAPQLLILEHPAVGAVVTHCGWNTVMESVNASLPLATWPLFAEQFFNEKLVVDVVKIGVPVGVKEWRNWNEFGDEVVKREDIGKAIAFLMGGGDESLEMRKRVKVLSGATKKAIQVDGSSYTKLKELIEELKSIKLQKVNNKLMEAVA

GmCSyGT3 = target: T6, GmCSyGT3 (Glycine max, UniProt A0A7I6P8J7); assay: yeast feeding assay, LC-MS of monoglucuronide; settings: 10 µM substrate fed to yeast with co-expressed UGD
T6 construct: full-length cDNA, membrane protein, expressed in S. cerevisiae with A. thaliana UGD
T6 sequence (A0A7I6P8J7 1-696): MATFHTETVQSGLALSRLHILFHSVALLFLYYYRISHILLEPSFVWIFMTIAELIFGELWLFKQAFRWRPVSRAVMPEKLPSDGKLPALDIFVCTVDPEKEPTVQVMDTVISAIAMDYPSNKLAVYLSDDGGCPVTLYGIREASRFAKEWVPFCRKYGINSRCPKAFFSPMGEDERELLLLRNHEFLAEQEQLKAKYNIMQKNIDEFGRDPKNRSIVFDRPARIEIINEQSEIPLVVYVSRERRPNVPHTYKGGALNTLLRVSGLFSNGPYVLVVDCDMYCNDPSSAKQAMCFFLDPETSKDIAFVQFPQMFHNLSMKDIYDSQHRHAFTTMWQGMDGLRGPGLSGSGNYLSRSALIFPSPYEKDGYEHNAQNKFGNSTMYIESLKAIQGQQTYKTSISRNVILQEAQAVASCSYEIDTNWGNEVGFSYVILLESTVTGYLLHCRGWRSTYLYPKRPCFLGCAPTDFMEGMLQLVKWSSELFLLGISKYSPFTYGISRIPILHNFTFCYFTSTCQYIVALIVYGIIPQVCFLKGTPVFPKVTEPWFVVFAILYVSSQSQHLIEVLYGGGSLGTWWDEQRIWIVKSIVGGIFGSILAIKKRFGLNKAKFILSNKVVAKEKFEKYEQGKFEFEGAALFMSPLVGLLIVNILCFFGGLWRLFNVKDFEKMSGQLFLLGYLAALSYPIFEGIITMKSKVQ

GuCSyGT [2] = target: T4, GuCSyGT; assay: in vivo yeast assay, LC-MS of products with and without UGD; settings: sugar donor; acceptor glycyrrhetinic acid

`CC1(C)[C@@H](O)CC[C@]2(C)[C@H]3C(=O)C=C4[C@@H]5C[C@@](C)(C(=O)O)CC[C@]5(C)CC[C@@]4(C)[C@]3(C)CC[C@@H]12` [GA, glycyrrhetinic acid] was tested, and the “in vivo yeast assay, LC-MS of 3-O-monoglucoside” value (GuUGT73F13) was “GuUGT73F13, which catalyses 3-O-glucosylation of glycyrrhetinic acid”, the “in vivo yeast assay, LC-MS of monoglucuronide” value (GmCSyGT1) was “All of the CSyGT-expressing strains produced the corresponding monoglucuronides” and the “in vivo yeast assay, LC-MS of monoglucuronide” value (LjCSyGT) was “The low catalytic activity of LjCSyGT for glycyrrhetinic and oleanolic acids”. For the same compound, the “in vivo yeast assay, LC-MS of monoglucuronide” value (GuCSyGT [1]) was “All of the CSyGT-expressing strains produced the corresponding monoglucuronides”.

In the case of `CC1(C)[C@@H](O[C@@H]2O[C@H](C(=O)O)[C@@H](O)[C@H](O)[C@H]2O)CC[C@]2(C)[C@H]3C(=O)C=C4[C@@H]5C[C@@](C)(C(=O)O)CC[C@]5(C)CC[C@@]4(C)[C@]3(C)CC[C@@H]12` [GA–GlcA, glycyrrhetinic acid-3-O-monoglucuronide], the “de novo pathway in yeast, LC-MS of glycyrrhizin” value (UGT73P12) is reported as “Since the product is quickly converted into glycyrrhizin in GL strains”.

For `C[C@H]1[C@H](C)CC[C@]2(C(=O)O)CC[C@]3(C)C(=CC[C@@H]4[C@@]5(C)CC[C@H](O)C(C)(C)[C@@H]5CC[C@]43C)[C@H]12` [ursolic acid], the “yeast feeding assay, LC-MS of monoglucuronide” value (GmCSyGT3) was “GmCSyGT3 showed catalytic activity against the triterpenoid aglycones, ursolic acid and betulinic acid”.

`O=C(O)[C@H]1O[C@H](OP(=O)(O)OP(=O)(O)OC[C@H]2O[C@@H](n3ccc(=O)[nH]c3=O)[C@H](O)[C@@H]2O)[C@H](O)[C@@H](O)[C@@H]1O` [UDP-glucuronic acid] was tested, and the “in vivo yeast assay, LC-MS of products with and without UGD” value (GuCSyGT [2]) was “GuCSyGT preferentially selects UDP-glucuronic acid as the sugar donor”.

For `CC1(C)C[C@@H](O)[C@]2(C)CC[C@]3(C)C(=CC[C@@H]4[C@@]5(C)CC[C@H](O)[C@](C)(CO)[C@@H]5CC[C@]43C)[C@@H]2C1` [soyasapogenol B], the “in vivo yeast assay, LC-MS of monoglucuronide” value (GmCSyGT1) was “all three had similar levels of catalytic activity for soyasapogenol B” and the “in vivo yeast assay, LC-MS of monoglucuronide” value (LjCSyGT) was “all three had similar levels of catalytic activity for soyasapogenol B”.

In the case of `C=C(C)[C@@H]1CC[C@]2(C(=O)O)CC[C@]3(C)[C@H](CC[C@@H]4[C@@]5(C)CC[C@H](O)C(C)(C)[C@@H]5CC[C@]43C)[C@@H]12` [betulinic acid], the “yeast feeding assay, LC-MS of monoglucuronide” value (GmCSyGT3) is reported as “GmCSyGT3 showed catalytic activity against the triterpenoid aglycones, ursolic acid and betulinic acid”.
